Experimental data taken from the supplement of paper PMC11451515.

Tested on: NOMO1
Assay: cell viability relative to DMSO control; higher = less cytotoxic
Details: 48 h
Outline: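 NOMO1 or SEM (500 cells/well) or P12-Ichikawa (1000 cells/well) leukemia cells were adapted for at least four passages in each medium. They were seeded in 1536-well plates (5 μl) and pin-dosed with library compounds in DMSO over an 11-point threefold series, 47 μM to 0.79 nM. CellTiter-Glo One luminescence was read after 48 h at 37°C. Viability is the per-plate percentage relative to DMSO wells, with cell-free wells as background.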

[1] = HPLM + 10% dialyzed FBS, 0.000781 µM
[2] = HPLM + 10% dialyzed FBS, 0.00234 µM
[3] = HPLM + 10% dialyzed FBS, 0.00702 µM
[4] = HPLM + 10% dialyzed FBS, 0.0211 µM
[5] = HPLM + 10% dialyzed FBS, 0.0632 µM
[6] = HPLM + 10% dialyzed FBS, 0.19 µM
[7] = HPLM + 10% dialyzed FBS, 0.569 µM
[8] = HPLM + 10% dialyzed FBS, 1.71 µM
[9] = HPLM + 10% dialyzed FBS, 5.12 µM
[10] = HPLM + 10% dialyzed FBS, 15.4 µM
[11] = HPLM + 10% dialyzed FBS, 46.1 µM
[12] = RPMI 5 mM glucose + 10% FBS, 0.000781 µM
[13] = RPMI 5 mM glucose + 10% FBS, 0.00234 µM
[14] = RPMI 5 mM glucose + 10% FBS, 0.00702 µM
[15] = RPMI 5 mM glucose + 10% FBS, 0.0211 µM
[16] = RPMI 5 mM glucose + 10% FBS, 0.0632 µM
[17] = RPMI 5 mM glucose + 10% FBS, 0.19 µM
[18] = RPMI 5 mM glucose + 10% FBS, 0.569 µM
[19] = RPMI 5 mM glucose + 10% FBS, 1.71 µM
[20] = RPMI 5 mM glucose + 10% FBS, 5.12 µM
[21] = RPMI 5 mM glucose + 10% FBS, 15.4 µM
[22] = RPMI 5 mM glucose + 10% FBS, 46.1 µM
[23] = RPMI 5 mM glucose + 10% dialyzed FBS, 0.000781 µM
[24] = RPMI 5 mM glucose + 10% dialyzed FBS, 0.00234 µM
[25] = RPMI 5 mM glucose + 10% dialyzed FBS, 0.00702 µM
[26] = RPMI 5 mM glucose + 10% dialyzed FBS, 0.0211 µM
[27] = RPMI 5 mM glucose + 10% dialyzed FBS, 0.0632 µM
[28] = RPMI 5 mM glucose + 10% dialyzed FBS, 0.19 µM
[29] = RPMI 5 mM glucose + 10% dialyzed FBS, 0.569 µM
[30] = RPMI 5 mM glucose + 10% dialyzed FBS, 1.71 µM
[31] = RPMI 5 mM glucose + 10% dialyzed FBS, 5.12 µM
[32] = RPMI 5 mM glucose + 10% dialyzed FBS, 15.4 µM
[33] = RPMI 5 mM glucose + 10% dialyzed FBS, 46.1 µM

| SMILES | cell viability [1] | cell viability [2] | cell viability [3] | cell viability [4] | cell viability [5] | cell viability [6] | cell viability [7] | cell viability [8] | cell viability [9] | cell viability [10] | cell viability [11] | cell viability [12] | cell viability [13] | cell viability [14] | cell viability [15] | cell viability [16] | cell viability [17] | cell viability [18] | cell viability [19] | cell viability [20] | cell viability [21] | cell viability [22] | cell viability [23] | cell viability [24] | cell viability [25] | cell viability [26] | cell viability [27] | cell viability [28] | cell viability [29] | cell viability [30] | cell viability [31] | cell viability [32] | cell viability [33] |
| --- | --- | --- | --- | --- | --- | --- | --- | --- | --- | --- | --- | --- | --- | --- | --- | --- | --- | --- | --- | --- | --- | --- | --- | --- | --- | --- | --- | --- | --- | --- | --- | --- | --- |
| Cc1cnc(-c2cc(N3CCN(C(=O)CC[S+](C)(=O)[O-])CC3)ncc2Cl)c(C)c1 | 96.3% | 125% | 132% | 126% | 132% | 134% | 127% | 129% | 137% | 134% | 191% |  |  |  |  |  |  |  |  |  |  |  |  |  |  |  |  |  |  |  |  |  |  |
| O=C(O)c1ccc2c(c1)nc(Nc1cccc(Cl)c1)c1ccncc12 | 114% | 109% | 131% | 115% | 114% | 119% | 125% | 114% | 73.8% | 49.2% | 78.1% | 93% | 93.5% | 103% | 103% | 94.6% | 103% | 92.7% | 90.8% | 83.7% | 65.6% | 79.2% | 100% | 105% | 101% | 101% | 107% | 99.1% | 91.9% | 101% | 81.5% | 47.2% | 77.5% |
| O=C(O[C@H]1C[C@H]2CC[C@@H](C1)[N+]21CCCC1)C(O)(c1ccccc1)c1ccccc1.[Cl-] | 95.5% | 116% | 121% | 107% | 124% | 116% | 116% | 116% | 116% | 110% | 106% | 89.4% | 95.7% | 99.6% | 89.9% | 92.3% | 98.3% | 96.8% | 105% | 100% | 105% | 92.1% | 97.6% | 98.8% | 111% | 109% | 98.1% | 102% | 94.8% | 95% | 111% | 106% | 108% |
| C[C@]12CCC(=O)C=C1CC[C@@H]1[C@@H]2CC[C@@]2(C)[C@H]1CC[C@]2(C)O | 109% | 116% | 115% | 85.3% | 110% | 102% | 108% | 102% | 99.1% | 96.5% | 90.2% | 85.1% | 89.6% | 88.9% | 97.2% | 86% | 96.5% | 91.1% | 86.8% | 98.7% | 87.7% | 83.4% | 107% | 93.8% | 96.1% | 86.5% | 105% | 93.1% | 91.6% | 98.1% | 90.9% | 91.6% | 90.7% |
| COc1ncc(-c2ccc3nccc(-c4ccnnc4)c3c2)cc1N[S+](=O)([O-])c1ccc(F)cc1F | 95.5% | 81.2% | 76.8% | 89.6% | 75.1% | 66.3% | 60.5% | 45.8% | 41.7% | 31.9% | 29.7% | 121% | 96.1% | 92.3% | 79.8% | 76% | 72.8% | 69.7% | 43.1% | 29.9% | 27.8% | 21% | 104% | 92.1% | 86.2% | 76.6% | 72.9% | 62.6% | 64% | 44.7% | 38.1% | 29.7% | 19.9% |
| COC1=CC=C(C=C1)C/2=C/OC3=C(C(=CC(=C3)O)O)C2=O | 111% | 124% | 133% | 114% | 130% | 123% | 133% | 122% | 116% | 114% | 60.5% |  |  |  |  |  |  |  |  |  |  |  | 111% | 116% | 120% | 130% | 156% | 144% | 144% | 140% | 140% | 143% | 106% |
| CC(C)NC[C@@H](C(=O)N1CCN(c2ncnc3c2[C@H](C)C[C@H]3O)CC1)c1ccc(Cl)cc1 | 115% | 115% | 119% | 117% | 109% | 103% | 109% | 110% | 79% | 51.4% | 18.6% | 109% | 121% | 109% | 100% | 111% | 109% | 107% | 105% | 102% | 73.8% | 47.8% | 124% | 89.2% | 115% | 100% | 103% | 100% | 108% | 87.8% | 81.6% | 57.6% | 43.1% |
| COc1cc2ncnc(Nc3cc(Br)c(O)c(Br)c3)c2cc1OC | 95.8% | 91% | 114% | 112% | 107% | 102% | 120% | 119% | 97.2% | 111% | 85.6% | 99.5% | 115% | 99.8% | 103% | 118% | 113% | 109% | 109% | 107% | 110% | 106% | 92.4% | 99.7% | 99.3% | 107% | 105% | 96.8% | 108% | 112% | 103% | 104% | 98.2% |
